Read-outs that look alike come from different tables or passages of the source. Marks after values point to notes of the source that are not given here.
Assays:
[1] = male, ICR, mouse; for F NCA (absolute oral bioavailability) / AUC0–∞ / C max / T max: in vivo, 100 mg/kg; for AUC0–∞ / C max / T max / in vivo isomerization in plasma: po
Experimental: (§1) All animal experiments were performed in the I Tech Lab. Co., Ltd (Gifu, Japan). The study protocol was approved by the Institutional Animal Care and Use Committee of the company (approval numbers: ITL-25-MO-385 for the oral administration test and ITL-25-MV-386 for the intravenous injection test). Slc:ICR (ICR) male mice aged 7–8 weeks, supplied by Japan SLC Inc. (Shizuoka, Japan), were used in this study. The body weight of the mice at the beginning of the experiments ranged from 42.8 to 52.3 g. The mice were maintained under stable laboratory conditions (temperature: 18–28 °C; humidity: 30–80%; 12 h light/dark cycle) and provided with drinking water and a standard laboratory diet (MF; Oriental Yeast Co., Ltd, Tokyo, Japan) throughout the acclimation and testing periods. After an 11-day acclimation period, single oral administration and intravenous injection tests were conducted. For the oral administration test, 15 mice were randomly assigned to four groups: control (placebo; soybean oil administered), (all-E)-astaxanthin administered (n = 4), (9Z)-astaxanthin administered (n = 4), and (13Z)-astaxanthin administered (n = 4). Each astaxanthin isomer was administered to mice at a dose of 100 mg per kg body weight. […] Blood samples were collected before and 3, 6, 9, 12, and 24 h after the administration of the test diets. Fecal samples were collected 6–24 h after administering astaxanthin. In the intravenous injection test, 15 mice were randomly assigned to four groups: control (placebo; solvent intravenously injected), (all-E)-astaxanthin intravenously injected (n = 4), (9Z)-astaxanthin intravenously injected (n = 4), and (13Z)-astaxanthin intravenously injected (n = 4). Each astaxanthin isomer was intravenously injected into mice at a dose of 10 mg per kg body weight.[24] Blood samples were collected before and 1, 3, 6, 9, and 12 h after injecting the test samples. After these tests, the mice were sacrificed by exsanguination under anesthesia (ketamine hydrochloride and xylazine hydrochloride), and the liver was collected. Plasma samples were prepared from heparin-treated blood by centrifugation. The collected plasma, liver, and fecal samples were immediately stored at −80 °C under dark condition until just before astaxanthin extraction.
(§2) Astaxanthin isomers in the plasma, liver, and fecal samples were extracted according to previous reports.[14,15] In brief, astaxanthin isomers in plasma were extracted using hexane containing 0.01% BHT. An equal volume of methanol was added to each plasma sample to precipitate the proteins prior to hexane extraction. The extraction was performed three times using a vortex mixer for 30 s. After separating the hexane and aqueous layers by centrifugation, the hexane layer was carefully collected and removed using an evaporator. The obtained solid was dissolved in a mixture of hexane and ethyl acetate (9 : 1), filtered through a 0.22 μm PTFE membrane filter, and analyzed using HPLC. Astaxanthin isomers in liver and fecal samples were extracted using acetone containing 0.01% BHT. The samples were ultrasonicated at 80 W and 38 kHz for 30 min in ice water (∼5 °C) to facilitate extraction. The extraction residue was separated from the extraction liquid using a 0.22 μm PTFE membrane filter. The filtrate containing astaxanthin isomers was concentrated to dryness using an evaporator. Finally, the residue was dissolved in a mixture of hexane and ethyl acetate (9 : 1), filtered through a 0.22 μm PTFE membrane filter, and analyzed using HPLC. To minimize the isomerization and degradation of astaxanthin during the extraction process, heat and light exposure were carefully controlled.

[2] = mouse, iv; for AUC0–∞ / C max: in vivo, 10 mg/kg
Experimental: as §1, §2

For `CC(C=CC=C(C)C=CC1=C(C)C(=O)C(O)CC1(C)C)=CC=CC=C(C)C=CC=C(C)C=CC1=C(C)C(=O)C(O)CC1(C)C` (stereo not drawn) [(9Z)-Astaxanthin, (9Z)-astaxanthin], the “F NCA (absolute oral bioavailability)” value [1] was 0.04, the “AUC0–∞” value [1] was 4330 ± 2070 ng·h/mL and the C max [1] was 1010 ± 510 ng/mL. The T max [1] was 4 h, the “in vivo isomerization in plasma” value [1] was “isomerized into a variety of Z-isomers, including the all-E-, 13Z-, and 15Z-isomers, and two unidentified Z-isomers” and the “AUC0–∞” value ([2]; male, ICR) was 19400 ± 3300 ng·h/mL. The C max ([2]; male, ICR) was 2030 ± 160 ng/mL and the “in vivo isomerization in plasma” value [2] was “markedly limited isomerization”.
For `CC(C=CC=C(C)C=CC1=C(C)C(=O)C(O)CC1(C)C)=CC=CC=C(C)C=CC=C(C)C=CC1=C(C)C(=O)C(O)CC1(C)C` (stereo not drawn) [(13Z)-Astaxanthin, (13Z)-astaxanthin], the “F NCA (absolute oral bioavailability)” value [1] was 0.18, the “AUC0–∞” value [1] was 82200 ± 57400 ng·h/mL and the C max [1] was 7700 ± 5090 ng/mL. The T max [1] was 6 h, the “in vivo isomerization in plasma” value [1] was “a minor portion of the 13Z-isomer isomerized to the all-E-isomer” and the “AUC0–∞” value ([2]; male, ICR) was 127100 ± 32400 ng·h/mL. The C max ([2]; male, ICR) was 5460 ± 1340 ng/mL and the “in vivo isomerization in plasma” value [2] was “the isomer composition remained relatively stable”.
With `CC(C=CC=C(C)C=CC1=C(C)C(=O)C(O)CC1(C)C)=CC=CC=C(C)C=CC=C(C)C=CC1=C(C)C(=O)C(O)CC1(C)C` (stereo not drawn) [(all-E)-Astaxanthin, (all-E)-astaxanthin] the “F NCA (absolute oral bioavailability)” value [1] was 0.12, the “AUC0–∞” value [1] was 1460 ± 1350 ng·h/mL and the C max [1] was 10 ± 10 ng/mL. The T max [1] was 3 (9) ^d h, the “in vivo isomerization in plasma” value [1] was “a small portion of (all-E)-astaxanthin was converted to the 13Z- and 15Z-isomers” and the “AUC0–∞” value ([2]; male, ICR) was 310 ± 200 ng·h/mL. For the same molecule, the C max ([2]; male, ICR) was 100 ± 70 ng/mL and the “in vivo isomerization in plasma” value ([2]; male, ICR) was “the proportion of the 13Z-isomer gradually increased over time”.
